Measured values published in patent US9771389B2, “Tylosin derivatives and method for preparation thereof” (BAYER ANIMAL HEALTH GMBH, priority 2013, dated 2017).

How the values were obtained:
[1] = system: M. hemolytica KB345 (Tilmicosin-sensitivity strain); assay: Paper disc assay, M. hemolytica KB345; type: cell-based, Mannhemia hemolytica
Method: (§1) (1) Antibacterial activities against Mannheimia and Pasteurella were determined by the following steps: • 1) M. hemolytica KB345 (Tilmicosin-sensitivity strain) and M. hemolytica KB346 (Tilmicosin-low sensitivity strain) were provided. KB 345 strain stored at −80° C. was seeded to BHIB agar medium (10 mL) by using Microbank beads (Pro-Lab) and platinum nail. After statically incubating the KB 345 strain for 24 hours at 37° C., it was seeded to maintaining slant BHIB agar medium (7 mL) by using platinum loop, further statically incubated for 24 hours at 37° C. to obtain slant. One platinum loop of KB 345 strain stored at the slant was inoculated into a large test tube charged with BHIB liquid medium (10 mL) and then incubated for 24 hours at 37° C. with shaking. • 2) A paper disc (ADVANTEC, Φ:6 mm) was impregnated with a solution of test compound and dried under reduced pressure. • 3) To a melted BHIB agar medium was inoculated 1% of the broth obtained from step 1) above to prepare a test plate. After the medium set, the paper disc prepared in step 2) above was put on the plate and it was incubated at 37° C. • 4) After one day, the inhibition zone diameter and clarity (A to E) were determined. For KB346 strain, the same procedures were repeated.

[2] = system: M. hemolytica KB346 (Tilmicosin-low sensitivity strain); assay: Paper disc assay, M. hemolytica KB346; type: cell-based, Mannhemia hemolytica
Method: as §1

[3] = system: Bacillus subtilis ATCC6633; assay: Paper disc assay, Bacillus subtilis; type: cell-based; conditions: S
Method: (§2) (2) Antibacterial activities against other bacteria were determined with Micrococcus luteus ATCC9341 (1), Bacillus subtilis […] (s), Escherichia coli NIHJ (c), Xanthomonas campestris KB88 (X), Mucor racemosus IFO 4581 (Mu) and Candida albicans ATCC 64548 (Ca).
(§3) Bacillus subtilis ATCC6633 was incubated in Davis synthetic medium and then the seed broth was combined with the medium in the ratio of 1:99 to obtain a test plate. Micrococcus luteus ATCC9341, Escherichia coli NIHJ and Xanthomonas campestris KB88 were respectively incubated in Nutrient agar medium and inoculated at 0.2%, 0.5% and 1.0%. Mucor racemosus IFO 4581 and Candida albicans ATCC 64548 were respectively incubated in GY agar medium and then inoculated at 0.3% and 0.2%.
(§4) A paper disc (ADVANTEC, Φ:6 mm) was impregnated with a solution of test compound and dried under reduced pressure. The paper disc was put on the test plate and it was incubated for 24 hours at 37° C. After incubation, the inhibition zone diameter and clarity (A to E) were determined.

[4] = system: Micrococcus luteus ATCC9341; assay: Paper disc assay, Micrococcus luteus; type: cell-based; conditions: column 1
Method: as §2, §3, §4

[5] = system: Xanthomonas campestris KB88; assay: Paper disc assay, Xanthomonas campestris; type: cell-based; conditions: X
Method: as §2, §3, §4

CC[C@H]1OC(=O)C[C@@H](O)[C@H](C)[C@@H](O[C@@H]2O[C@H](C)[C@@H](O)[C@H](N(C)C)[C@H]2O)[C@@H](CC=O)C[C@@H](C)C(=O)/C=C/C(C)=C/[C@@H]1CO[C@@H]1O[C@H](C)[C@@H](O)[C@@H](OC)[C@H]1OC [YT6, Desmycosin]
Inhibition zone ([1]; 30 mg/6 mm disk, Table 2): 10.5 mm
Inhibition zone ([2]; 3 mg/6 mm disk, Table 3): 8.5 mm
Inhibition zone ([2]; 10 mg/6 mm disk, Table 3): 13.5 mm
Inhibition zone ([2]; 30 mg/6 mm disk, Table 3): 17.5 mm
Inhibition zone ([2]; 100 mg/6 mm disk, Table 3): 21.0 mm

CCC1OC(=O)CC(O)C(C)C(OC2OC(C)C(O)C(N(C)C)C2O)C(CCCl)CC(C)C(=O)C=CC(C)=CC1COC1OC(C)C(O)C(OC)C1OC (centres unmarked) [YT8, 20-chloro-20-deoxodesmycosin]
Inhibition zone ([1]; 10 mg/6 mm disk, Table 2): 12.5 mm
Inhibition zone ([1]; 30 mg/6 mm disk, Table 2): 18.0 mm
Inhibition zone ([1]; 100 mg/6 mm disk, Table 2): 20.0 mm
Inhibition zone ([2]; 30 mg/6 mm disk, Table 3): 11.0 mm
Inhibition zone ([2]; 100 mg/6 mm disk, Table 3): 14.5 mm

CCC1OC(=O)CC(O)C(C)C(OC2OC(C)C(O)C(N(C)C)C2O)C(CCN=[N+]=[N-])CC(C)C(=O)C=CC(C)=CC1COC1OC(C)C(O)C(OC)C1OC (centres unmarked) [YT11, 20-azido-20-deoxodesmycosin]
Inhibition zone ([1]; 3 mg/6 mm disk, Table 2): 10.0 mm
Inhibition zone ([1]; 10 mg/6 mm disk, Table 2): 13.0 mm
Inhibition zone ([1]; 30 mg/6 mm disk, Table 2): 16.0 mm
Inhibition zone ([1]; 100 mg/6 mm disk, Table 2): 18.0 mm
Inhibition zone ([2]; 100 mg/6 mm disk, Table 3): 11.0 mm

CC[C@H]1OC(=O)C[C@@H](O)[C@H](C)[C@@H](O[C@@H]2OC(C)[C@@H](O)C(N(C)C)C2O)[C@@H](CCn2cc(-c3ccccn3)nn2)C[C@@H](C)C(=O)/C=C/C(C)=C/[C@@H]1CO[C@@H]1OC(C)[C@@H](O)C(OC)C1OC (some centres unmarked) [YT12, 20-(4-(pyridine-2-yl)-1H-1,2,3-triazol-1-yl)-20-deoxodesmycosin]
Inhibition zone ([3]; 0.1 mg/6 mm disc): 7 mm
Inhibition zone ([3]; 1 mg/6 mm disc): 12.5 mm
Inhibition zone ([3]; 10 mg/6 mm disc): 14 mm
Inhibition zone ([4]; 0.1 mg/6 mm disc): 12 mm
Inhibition zone ([4]; 1 mg/6 mm disc): 18.5 mm
Inhibition zone ([4]; 10 mg/6 mm disc): 25 mm
Inhibition zone ([5]; 0.1 mg/6 mm disc): 7 mm
Inhibition zone ([5]; 10 mg/6 mm disc): 27 mm

CC[C@H]1OC(=O)C[C@@H](O)[C@H](C)[C@@H](O[C@@H]2OC(C)[C@@H](O)C(N(C)C)C2O)[C@@H](CCn2cc(-c3ccccc3)nn2)C[C@@H](C)C(=O)/C=C/C(C)=C/[C@@H]1CO[C@@H]1OC(C)[C@@H](O)C(OC)C1OC (some centres unmarked) [YT13, 20-(4-phenyl-1H-1,2,3-triazol-1-yl)-20-deoxodesmycosin]
Inhibition zone ([3]; 0.1 mg/6 mm disc): 9.5 mm
Inhibition zone ([3]; 1 mg/6 mm disc): 12 mm
Inhibition zone ([3]; 10 mg/6 mm disc): 15.5 mm
Inhibition zone ([4]; 0.1 mg/6 mm disc): 15 mm
Inhibition zone ([4]; 1 mg/6 mm disc): 21.5 mm
Inhibition zone ([4]; 10 mg/6 mm disc): 27.5 mm
Inhibition zone ([5]; 0.1 mg/6 mm disc): 8 mm
Inhibition zone ([5]; 1 mg/6 mm disc): 17 mm
Inhibition zone ([5]; 10 mg/6 mm disc): 23.5 mm

CC[C@H]1OC(=O)C[C@@H](O)[C@H](C)[C@@H](O[C@@H]2OC(C)[C@@H](O)C(N(C)C)C2O)[C@@H](CCn2cc(CCCCCl)nn2)C[C@@H](C)C(=O)/C=C/C(C)=C/[C@@H]1CO[C@@H]1OC(C)[C@@H](O)C(OC)C1OC (some centres unmarked) [YT19, 20-(4-(4-chlorobutyl)-1H-1,2,3-triazol-1-yl)-20-deoxodesmycosin]
Inhibition zone ([3]; 0.1 mg/6 mm disc): 7 mm
Inhibition zone ([3]; 1 mg/6 mm disc): 10.5 mm
Inhibition zone ([3]; 10 mg/6 mm disc): 15 mm
Inhibition zone ([4]; 0.1 mg/6 mm disc): 13 mm
Inhibition zone ([4]; 1 mg/6 mm disc): 19 mm
Inhibition zone ([4]; 10 mg/6 mm disc): 26 mm
Inhibition zone ([5]; 0.1 mg/6 mm disc): 7 mm
Inhibition zone ([5]; 1 mg/6 mm disc): 14.5 mm
Inhibition zone ([5]; 10 mg/6 mm disc): 23 mm

CC[C@H]1OC(=O)C[C@@H](O)[C@H](C)[C@@H](O[C@@H]2OC(C)[C@@H](O)C(N(C)C)C2O)[C@@H](CCn2cc(-c3ccc(N(C)C)cc3)nn2)C[C@@H](C)C(=O)/C=C/C(C)=C/[C@@H]1CO[C@@H]1OC(C)[C@@H](O)C(OC)C1OC (some centres unmarked) [YT29, 20-(4-(4-dimethylaminophenyl)-1H-1,2,3-triazol-1-yl)-20-deoxodesmycosin]
Inhibition zone ([3]; 0.1 mg/6 mm disc): 7 mm
Inhibition zone ([3]; 1 mg/6 mm disc): 10 mm
Inhibition zone ([3]; 10 mg/6 mm disc): 15 mm
Inhibition zone ([4]; 0.1 mg/6 mm disc): 11 mm
Inhibition zone ([4]; 1 mg/6 mm disc): 19.5 mm
Inhibition zone ([4]; 10 mg/6 mm disc): 25.5 mm
Inhibition zone ([5]; 0.1 mg/6 mm disc): 7 mm
Inhibition zone ([5]; 1 mg/6 mm disc): 15 mm
Inhibition zone ([5]; 10 mg/6 mm disc): 24 mm

CC[C@H]1OC(=O)C[C@@H](O)[C@H](C)[C@@H](O[C@@H]2O[C@H](C)[C@@H](O)[C@H](N(C)C)[C@H]2O)[C@@H](CC=O)C[C@@H](C)C(=O)/C=C/C(C)=C/[C@@H]1CO [YT106, 5-O-mycaminosyltylonolide]
Inhibition zone ([1]; 10 mg/6 mm disk, Table 4): 8.5 mm
Inhibition zone ([1]; 30 mg/6 mm disk, Table 4): 12.5 mm
Inhibition zone ([1]; 100 mg/6 mm disk, Table 4): 15.0 mm
Inhibition zone ([2]; 10 mg/6 mm disk, Table 5): 9.0 mm
Inhibition zone ([2]; 30 mg/6 mm disk, Table 5): 13.0 mm
Inhibition zone ([2]; 100 mg/6 mm disk, Table 5): 17.0 mm
